# Laboratory results as given in US6340654B1, “Freshness-retaining agent and method for agricultural/horticultural products” (priority 1999, dated 2002).
# Test system: fresh pieces of apple (variety: Mutsu)
# Test: Ethylene concentration lowering effect for apple (ethylene in hermetically closed jar, tubular gas detector)
# Conditions: 23° C.
# [1] = Table 1, 20 g apple pieces in closed 150-mL jar, 3 g agent
# [2] = Table 2, vs. mixing ratio, 3 g agent per 20 g apple
# [3] = Table 9, single substances 3 g, mixtures 1.5 g + 1.5 g, 20 g apple
# [4] = Table 10, vs. mixing ratio, 3 g agent per 20 g apple
# Protocol: Mouths of those jars were then hermetically closed with “[sequence]” (trademark; product of American National Can Company). Those jars were left over at 23° C., and on DAY 1, DAY 3 and DAY 6, the concentrations of ethylene in the respective jars were measured by a tubular gas detector (manufactured by Gastec, Inc.). The concentration of ethylene in a jar with “KIMWIPE” alone hermetically placed therein was also measured as a control.
# Mouths of those jars were then hermetically closed with “[sequence]”. Those jars were left over at 23° C., and on DAY 1, DAY 3 and DAY 6, the concentrations of ethylene in the respective jars were measured by the tubular gas detector (manufactured by Gastec, Inc.). The concentration of ethylene in a jar with “KIMWIPE” alone hermetically placed therein was also measured as a control.
# In 150-mL jars with 20 g per jar of fresh pieces of apple (variety: Mutsu) placed therein, portions (0.5 to 3 g) of a freshness-retaining agent [cinnamic acid:sodium hydrogen-carbonate=1:2 (by weight)] according to the present invention—all of which were individually wrapped with “KIMWIPE” (trademark for laboratory paper produced by Jujo-Kimberly Co., Ltd.)—were placed, respectively. Mouths of those jars were then hermetically closed with “[sequence]”. Those jars were left over at 23° C., and on DAY 1 and DAY 3, the concentrations of ethylene in the respective jars were measured by the tubular gas detector (manufactured by Gastec, Inc.). The concentration of ethylene in a jar with “KIMWIPE” alone hermetically placed therein was also measured as a control.
# In 150-mL jars with 20 g per jar of fresh pieces of apple (variety: Mutsu) placed therein, three freshness-retaining agents according to the present invention [1:3 (by molar ratio) mixtures of cinnamic acid and hydrogencarbonates]—all of which were individually wrapped with “KIMWIPE” (trademark for laboratory paper produced by Jujo-Kimberly Co., Ltd.)—were placed, respectively. Mouths of those jars were then hermetically closed with “[sequence]”. Those jars were left over at 23° C., and on DAY 1 and DAY 3, the concentrations of ethylene in the respective jars were measured by the tubular gas detector (manufactured by Gastec, Inc.). The concentration of ethylene in a jar with “KIMWIPE” alone hermetically placed therein was also measured as a control.
# Mouths of those jars were then hermetically closed with “[sequence]”.
SMILES,Concentration of ethylene DAY 1 [1],"Concentration of ethylene DAY 2 (Table 1, DAY 2, 20 g apple pieces in closed 150-mL jar, 3 g agent)",Concentration of ethylene DAY 6 [1],Concentration of ethylene DAY 1 [2],Concentration of ethylene DAY 3 [2],Concentration of ethylene DAY 6 [2],Concentration of ethylene DAY 1 [3],Concentration of ethylene DAY 3 [3],Concentration of ethylene DAY 1 [4],Concentration of ethylene DAY 3 [4],Concentration of ethylene DAY 6 [4]
"O=C(O)C=Cc1ccccc1 [Cinnamic acid, cinnamic acid]",100 ppm,100 ppm,100 ppm,38 ppm,50 ppm,50 ppm,–,–,–,–,–
"O=C(O)CC(O)(CC(=O)O)C(=O)O [Citric acid, citric acid]",–,–,–,–,–,–,275 ppm,125 ppm,–,–,–
"O=C([O-])CC(O)(CC(=O)[O-])C(=O)O.[Na+].[Na+] [Disodium citrate, disodium citrate]",–,–,–,–,–,–,250 ppm,150 ppm,–,–,–
"O=C([O-])CC(O)(CC(=O)O)C(=O)O.[Na+] [Monosodium citrate, monosodium citrate]",–,–,–,–,–,–,250 ppm,125 ppm,–,–,–
"O=C([O-])O.[Na+] [Sodium hydrogencarbonate, sodium hydrogencarbonate]",–,–,–,50 ppm,75 ppm,125 ppm,275 ppm,150 ppm,275 ppm,150 ppm,150 ppm
